In patent US11884675B2, “Heterocyclic compounds as triggering receptor expressed on myeloid cells 2 agonists and methods of use” (AMGEN INC., priority 2020, dated 2024):
pEC50: −log10 of the molar value.

These molecules were tested against hTREM2 (Homo sapiens, UniProt Q9NZC2) (assay: TREM2 activity by cellular Syk phosphorylation (AlphaScreen/AlphaLISA) in TREM2/DAP12-HEK cells, used for Examples 1-305). Settings: HEK293 Cells.
Format: cell-based
Set-up: expressed in transfected cells
From the text: In vitro Measurement of Triggering Receptor Expressed on Myeloid Cells 2 activity using cellular phosphorylation of Spleen Tyrosine Kinase (“Syk”) Assays used for Examples 1-305
Pharmacological measurements of TREM2 signaling through DAP12 were made with TREM2 and DAP12 overexpressing HEK293 cells stable cell lines that had been single-cell cloned (“TREM2/DAP12-HEK”). The readout of the TREM2 signaling utilized Perkin Elmer AlphaScreen/AlphaLISA technology monitoring the phosphorylation levels of the Syk kinase. TREM2/DAP12-HEK cell lines were cultured in DMEM-F12 (Corning 10-092-CM) supplemented with 1X Penicillin/Streptomycin (Corning 30-002-CI), 1X GlutaMAX (Gibco 35050-061), and 10% Fetal Bovine Serum (Life Technologies 10099) referred to as “HEK Culture Medium”. Suspensions of TREM2/DAP12-HEK cells were prepared in HEK Culture Medium and dispensed into 384-well poly-D-lysine coated microplates (Corning 354661) at a density of 20,000 cells/well using a Multidrop Combi peristaltic microplate dispenser (Thermo), 25 μL volume of cell suspension/well. Plates containing cells were then incubated for 20 hours in a humidified cell culture incubator at 37° C. with 5% CO2 (Thermo). After incubation, culture medium was removed from all wells of each microplate and replaced with 20 μL of “Assay Buffer” comprised of DMEM-F12 (Corning 10-092-CM) supplemented with 1X Penicillin/Streptomycin (Corning 30-002-CI) and 0.1% Pluronic F-68 Polyol (MP Biomedical 092750049) using a Bravo 384-well pipette-based liquid handling system (Agilent). Assay Buffer contained diluted test articles (in 1% final DMSO concentration for compounds) or 100 nM anti-human/mouse TREM2 antibody (R&D Systems MAB17291) as a positive control, or 100 nM or rat IgG2B isotype Ab as a negative control (R&D Systems MAB0061). The plates were incubated with test articles and controls for 45 minutes at room temperature and then the medium was aspirated/removed from each well of the plates. A Multidrop Combi peristaltic liquid handler (Thermo) was used to dispense 15 μL/well of “Cell Lysis Immunoassay Buffer”. The Cell Lysis Immunoassay Buffer contained M-PER Mammalian Protein Extraction Reagent (Pierce/ThermoFisher 78505), 1X Halt Phosphatase Inhibitor Cocktail (ThermoFisher #78427), 0.1875 nM anti-phospho-Syk (Tyr525/526) (C87C1) rabbit mAb (Cell Signaling Technologies catalog #2710), and 1.5 nM biotinylated Mouse anti-human Syk (4D10) antibody (BD Biosciences, catalog #624008). Plates were incubated for 1 hour at room temperature after the addition of the Cell Lysis Immunoassay Buffer. The Multidrop Combi liquid handler was used to dispense 15 μL of AlphaScreen Acceptor Bead Solution containing 7.5 μg/mL anti-rabbit IgG (Fc specific) AlphaLISA Acceptor Beads (Perkin Elmer AL104R) in 1X Immunoassay buffer (Perkin Elmer AL000F) to each well of the microplates. The plates were incubated for 2 hours at room temperature. Following the incubation with the AlphaLISA Acceptor Bead Solution, a Multidrop Combi liquid handler (Thermo) was used to dispense 15 μL of AlphaScreen Donor Bead Solution containing 30 μg/mL of AlphaScreen Streptavidin Donor beads (Perkin Elmer 6760002B) in 1X Immunoassay buffer (Perkin Elmer AL000F) to each well of the microplates. Microplates were incubated for 2 hours protected from light sources as the AlphaScreen reagents are light sensitive. Once the final incubation was completed, an AlphaScreen signal was acquired from the donor and acceptor beads using an Envision high throughput multi-modal microplate reader (Perkin Elmer) calibrated to the plate type with the AlphaScreen mirror and filter-set in 384-well mode, 680 nanometer excitation wavelength. The total measurement time per well was 550 milliseconds with a 180 millisecond excitation time. […]

Sequence of hTREM2 (Q9NZC2 19-230): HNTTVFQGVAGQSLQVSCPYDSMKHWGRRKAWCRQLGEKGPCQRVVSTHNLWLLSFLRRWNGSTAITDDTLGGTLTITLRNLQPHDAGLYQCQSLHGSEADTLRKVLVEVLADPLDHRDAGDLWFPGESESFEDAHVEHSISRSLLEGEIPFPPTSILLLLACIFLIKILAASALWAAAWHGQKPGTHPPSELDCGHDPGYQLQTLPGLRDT
Sequence of hTREM2 (O43914 22-113 partner): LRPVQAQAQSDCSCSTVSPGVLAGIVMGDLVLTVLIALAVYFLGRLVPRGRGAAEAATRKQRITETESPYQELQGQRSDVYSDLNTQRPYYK

Row | Compound | pEC50 | hTREM2 Emax
1 | Cc1nc2nc([C@@H]3CCO[C@H](c4cnn(C)c4)C3)nc(C3CCC(F)(F)CC3)c2nc1C (single isomer, unassigned) [Example 175] | 5.52 to 6.30 | ++ (Emax>100 and ≤150)
2 | Cc1nc2nc([C@H]3CCO[C@@H](c4cnn(C)c4)C3)nc(C3CCC(F)(F)CC3)c2nc1C (single isomer, unassigned) [Example 176] | ≥ 7.30 | +++ (Emax>150 and ≤250)
3 | Cc1nc2nc([C@@H]3CCO[C@H](c4cnn(C)c4)C3)nc(-c3ccc(Cl)cc3F)c2nc1C (single isomer, unassigned) [Example 177] | 5.52 to 6.30 | +++ (Emax>150 and ≤250)
4 | Cc1nc2nc([C@H]3CCO[C@@H](c4cnn(C)c4)C3)nc(-c3ccc(Cl)cc3F)c2nc1C (single isomer, unassigned) [Example 178] | ≥ 7.30 | ++++ (Emax>250)
5 | Cc1nc2nc([C@@H]3CCO[C@H](c4cnn(C5CC5)c4)C3)nc(-c3ccc(Cl)cc3F)c2nc1C (single isomer, unassigned) [Example 180] | 6.30 to 7.30 | +++ (Emax>150 and ≤250)
6 | Cc1nc2nc([C@H]3CCO[C@@H](c4cnn(C5CC5)c4)C3)nc(-c3ccc(Cl)cc3F)c2nc1C (single isomer, unassigned) [Example 181] | – | +++ (Emax>150 and ≤250)
7 | Cc1nc2nc([C@H]3CCO[C@@H](c4cnn(C)c4)C3)nc(-c3ccc(F)cc3F)c2nc1C (single isomer, unassigned) [Example 182] | ≥ 7.30 | +++ (Emax>150 and ≤250)
8 | Cc1ccc(-c2nc([C@H]3CCO[C@@H](c4cnn(C)c4)C3)nc3nc(C)c(C)nc23)c(F)c1 (single isomer, unassigned) [Example 183] | ≥ 7.30 | ++++ (Emax>250)
9 | Cc1ccc(-c2nc([C@@H]3CCO[C@H](c4cnn(C)c4)C3)nc3nc(C)c(C)nc23)c(F)c1 (single isomer, unassigned) [Example 184] | 5.52 to 6.30 | +++ (Emax>150 and ≤250)
10 | Cc1cnc2c(-c3ccc(Cl)cc3F)cc([C@H]3CCO[C@@H](c4cnn(C)c4)C3)nc2n1 (single isomer, unassigned) [Example 185] | 6.30 to 7.30 | +++ (Emax>150 and ≤250)
11 | Cc1nc2nc([C@H]3CCO[C@H](c4cnn(C)c4)C3)cc(-c3ccc(Cl)cc3F)c2nc1C (single isomer, unassigned) [Example 186] | 5.52 to 6.30 | +++ (Emax>150 and ≤250)
12 | Cc1nc2nc([C@H]3CCO[C@@H](c4cnn(C)c4)C3)cc(-c3ccc(Cl)cc3F)c2nc1C (single isomer, unassigned) [Example 187] | ≥ 7.30 | +++ (Emax>150 and ≤250)
13 | Cc1nc2nc([C@H]3CCO[C@@H](c4cnn(C)c4)C3)cc(-c3ccc(F)cc3F)c2nc1C (single isomer, unassigned) [Example 188] | ≥ 7.30 | +++ (Emax>150 and ≤250)
14 | Cc1ccc(-c2cc([C@@H]3CCO[C@H](c4cnn(C)c4)C3)nc3nc(C)c(C)nc23)c(F)c1 (single isomer, unassigned) [Example 189] | 5.52 to 6.30 | +++ (Emax>150 and ≤250)
15 | Cc1ccc(-c2cc([C@H]3CCO[C@@H](c4cnn(C)c4)C3)nc3nc(C)c(C)nc23)c(F)c1 (single isomer, unassigned) [Example 190] | ≥ 7.30 | +++ (Emax>150 and ≤250)
16 | Cc1cnc2c(-c3ccc(Cl)cc3F)nc([C@H]3CCO[C@@H](c4cnn(C)c4)C3)cc2n1 (single isomer, unassigned) [Example 191] | 6.30 to 7.30 | ++++ (Emax>250)
17 | Cc1nc2cc([C@@H]3CCO[C@H](c4cnn(C)c4)C3)nc(-c3ccc(Cl)cc3F)c2nc1C (single isomer, unassigned) [Example 193] | 6.30 to 7.30 | ++++ (Emax>250)
18 | Cc1nc2cc([C@H]3CCO[C@H](c4cnn(C)c4)C3)nc(-c3ccc(Cl)cc3F)c2nc1C (single isomer, unassigned) [Example 194] | 5.52 to 6.30 | ++++ (Emax>250)
19 | Cc1nc2cc([C@H]3CCO[C@@H](c4cnn(C)c4)C3)nc(-c3ccc(F)cc3F)c2nc1C (single isomer, unassigned) [Example 195] | ≥ 7.30 | ++++ (Emax>250)
20 | Cc1ccc(-c2nc([C@H]3CCO[C@@H](c4cnn(C)c4)C3)cc3nc(C)c(C)nc23)c(F)c1 (single isomer, unassigned) [Example 196] | ≥ 7.30 | +++ (Emax>150 and ≤250)
21 | Cc1ccc2c(-c3ccc(Cl)cc3F)nc([C@H]3CCO[C@@H](c4cnn(C5CC5)c4)C3)nc2n1 (single isomer, unassigned) [Example 197] | ≥ 7.30 | ++++ (Emax>250)
22 | Cc1cc2c(-c3ccc(Cl)cc3F)nc([C@@H]3CCO[C@H](c4cnn(C5CC5)c4)C3)nc2nc1C (single isomer, unassigned) [Example 198] | 6.30 to 7.30 | +++ (Emax>150 and ≤250)
23 | Cc1cc2c(-c3ccc(Cl)cc3F)nc([C@H]3CCO[C@@H](c4cnn(C5CC5)c4)C3)nc2nc1C (single isomer, unassigned) [Example 199] | ≥ 7.30 | ++++ (Emax>250)
24 | Cc1cc2c(-c3ccc(F)cc3F)nc([C@@H]3CCO[C@H](c4cnn(C)c4)C3)nc2nc1C (single isomer, unassigned) [Example 200] | 5.52 to 6.30 | +++ (Emax>150 and ≤250)
25 | Cc1cc2c(-c3ccc(F)cc3F)nc([C@H]3CCO[C@@H](c4cnn(C)c4)C3)nc2nc1C (single isomer, unassigned) [Example 201] | ≥ 7.30 | +++ (Emax>150 and ≤250)
26 | Cc1ccc(-c2nc([C@@H]3CCO[C@H](c4cnn(C)c4)C3)nc3nc(C)c(C)cc23)c(F)c1 (single isomer, unassigned) [Example 202] | 5.52 to 6.30 | ++ (Emax>100 and ≤150)
27 | Cc1ccc(-c2nc([C@H]3CCO[C@@H](c4cnn(C)c4)C3)nc3nc(C)c(C)cc23)c(F)c1 (single isomer, unassigned) [Example 203] | ≥ 7.30 | +++ (Emax>150 and ≤250)
28 | Cc1nc2nc([C@@H]3CCO[C@@H](c4cnn(C)c4)C3)nc([C@H]3C[C@H](C(F)(F)F)C3)c2nc1C (single isomer, unassigned) [Example 204] | 5.52 to 6.30 | ++++ (Emax>250)
29 | Cc1nc2nc([C@H]3CCO[C@@H](c4cnn(C)c4)C3)nc([C@H]3C[C@H](C(F)(F)F)C3)c2nc1C (single isomer, unassigned) [Example 205] | 6.30 to 7.30 | +++ (Emax>150 and ≤250)
30 | Cc1cc([C@@H]2C[C@H](c3nc(-c4ccc(Cl)cc4F)c4nc(C)c(C)nc4n3)CCO2)ccn1 (single isomer, unassigned) [Example 206] | 6.30 to 7.30 | ++++ (Emax>250)
